Source: US7696165B2 (Albany Molecular Research, Inc., priority 2006, dated 2010)
≈ marks a conversion by molar mass, not a printed value.

Tested on: concanavalin A (ConA)-stimulated murine splenocytes
Test: Concanavalin A-stimulated murine splenocyte assay ([3H]thymidine incorporation)
Assay type: cell-based, mouse (BALB/c)
Procedure: Male BALB/c mice, at 5 to 7 weeks of age, were sacrificed by CO2 inhalation. Spleens were removed and dissociated by pushing through a nylon cell strainer. The splenocytes were washed in RPMI 1640/5% fetal calf serum (FCS) and pelleted at 400×g. Red blood cells were then lysed by resuspending the cell pellet in ACK lysis buffer (150 mM NH4Cl, 1 mM KHCO3, 0.1 mM EDTA, 3 mL per spleen) for 10 min at room temperature. After pelleting at 400×g, the cells were washed by resuspending in RPMI 1640/5% FCS and repelleting. The cell pellet was resuspended in RPMI 1640/5% FCS and again passed through a cell strainer to remove cell aggregates. The cells were then counted and adjusted to 2×10^6 cells/ml in RPMI 1640/10% FCS/50 μM 2-mercaptoethanol. Cell viability was assessed by Trypan blue staining. […] The cells were cultured in a 37° C. CO2 incubator for 2 days and then pulsed with 1 μCi of [^3H]thymidine for 6 hours. Cells were harvested onto filtermats with a TomTec 96 well plate harvester and lysed with H2O. The filtermat and scintillation fluid were sealed in a plastic sleeve. [^3H]thymidine incorporation was measured with a Wallac Trilux plate counter. Initial screens were done at a fixed value of 100 ng/ml test compound. IC50s were calculated from 7 point concentration-response curves using graphPad software.

| IC50 | SMILES | immunosuppressive potency compared to cyclosporin A (FIG. 1, ConA stimulated murine splenocyte assay) |
| --- | --- | --- |
| 0.077 µg/mL (≈ 0.0616 µM) | C/C=C\C#CC#CC[C@@H](C)[C@@H](O)[C@H]1C(=O)N[C@@H](CC)C(=O)N(C)CC(=O)N(C)[C@@H](CC(C)C)C(=O)N[C@@H](C(C)C)C(=O)N(C)[C@@H](CC(C)C)C(=O)N[C@@H](C)C(=O)N[C@H](C)C(=O)N(C)[C@@H](CC(C)C)C(=O)N(C)[C@@H](CC(C)C)C(=O)N(C)[C@@H](C(C)C)C(=O)N1C [Example 35, cis-cyclosporin yne-yne-ene] |  |
| 0.012 µg/mL (≈ 0.00991 µM) | C#CC#CC[C@@H](C)[C@@H](O)[C@H]1C(=O)N[C@@H](CC)C(=O)N(C)CC(=O)N(C)[C@@H](CC(C)C)C(=O)N[C@@H](C(C)C)C(=O)N(C)[C@@H](CC(C)C)C(=O)N[C@@H](C)C(=O)N[C@H](C)C(=O)N(C)[C@@H](CC(C)C)C(=O)N(C)[C@@H](CC(C)C)C(=O)N(C)[C@@H](C(C)C)C(=O)N1C [Example 25, cyclosporine diyne] | two times more potent over cyclosporin A |
| 0.012 µg/mL (≈ 0.0098 µM) | CC#CC#CC[C@@H](C)[C@@H](O)[C@H]1C(=O)N[C@@H](CC)C(=O)N(C)CC(=O)N(C)[C@@H](CC(C)C)C(=O)N[C@@H](C(C)C)C(=O)N(C)[C@@H](CC(C)C)C(=O)N[C@@H](C)C(=O)N[C@H](C)C(=O)N(C)[C@@H](CC(C)C)C(=O)N(C)[C@@H](CC(C)C)C(=O)N(C)[C@@H](C(C)C)C(=O)N1C [Example 27, cyclosporin diyne] |  |
| 0.032 µg/mL (≈ 0.0261 µM) | C/C=C\C#CC[C@@H](C)[C@@H](O)[C@H]1C(=O)N[C@@H](CC)C(=O)N(C)CC(=O)N(C)[C@@H](CC(C)C)C(=O)N[C@@H](C(C)C)C(=O)N(C)[C@@H](CC(C)C)C(=O)N[C@@H](C)C(=O)N[C@H](C)C(=O)N(C)[C@@H](CC(C)C)C(=O)N(C)[C@@H](CC(C)C)C(=O)N(C)[C@@H](C(C)C)C(=O)N1C [Example 14, cis-cyclosporin yne-ene] |  |
